Here are results for two compounds from patent publication US8198317B2, “Methylenedioxy phenolic compounds and their use to treat disease” (The Ohio State University Research Foundation, priority 2008, dated 2012).

For test [1], the system named is Watanabe Heritable Hyperlipidemic Rabbits (WHHL). Put plainly: Superoxide by dihydroethidium staining of WHHL aorta sections. In kind it is in vivo, rabbit.
Test [2] shares this test system. Put plainly: MRI of abdominal aortic wall volume in WHHL rabbits. In kind it is in vivo, rabbit. The method, then: In vivo experiments on hypercholesterolemic rabbits (Watanabe Heritable Hyperlipidemic Rabbits, WHHL) were performed in 6 rabbits treated with INV-75. Four rabbits served as controls.
Animal Model: WHHL rabbits weighing approximately 2 kg at 2 months were purchased from Brown Family in Alabama and housed in the institutional Laboratory Animal Center. Rabbits at the age of 6 months were used for all experiments. Rabbits were allowed free access to water and were fed a high cholesterol chow (2% cholesterol) from Harlan Tekad TD 7251. The animal care and experimental protocols were in accordance with nationally approved guidelines. The protocol that the rabbits were subjected to is outlined in FIG. 7. INV-75 was dissolved in 90% ethanol and sprayed on the high fat chow. The diet-drug mixture was then vacuum dried overnight to remove ethanol and then used to feed rabbits.
Each animal underwent three MRI studies: the first one prior to high fat feeding (baseline prior to drug administration); the second at the mid-point of drug therapy; and the final study after 12 weeks of drug therapy (FIG. 7). […] At the end of the study, all animals underwent an MRI study for plaque volume quantification. […]
High-resolution non-invasive MRI served to assess the degree of atherosclerosis before and after the corresponding treatments. Atherosclerotic plaque in the abdominal aorta of WHHL rabbits was analyzed by in vivo MRI scans at the indicated time points (FIG. 7). […] Plaque burden was determined by manually tracing the external elastic lamina (EEM) and the luminal border (L) and determining the area within each boundary using Siemens Viewer software. Slice volume (V) was calculated as V=(EEM-L)*4.0 and total wall volume per animal was calculated using the formula TWV=Σ[(EEM-L)*4] and expressed in mm^3. TWVs for each animal at each time point were normalized for varying numbers of readable slices with the formula NWV=(TWV/n)*m; n=number of slices readable in the individual animal and m=mean number of slices readable in all animals over all time points. […]

The target of a further test is T1, PPARα (Homo sapiens, UniProt Q07869).
T1 construct: HepG2 cells transfected with yeast GAL4-PPARα-LBD plasmid+UAS-Luciferase; expressed in transfected cells; host or cells: HepG2
The test is described as follows: GAL4-PPARα-LBD luciferase assay in HepG2 cells. In kind it is cell-based. An excerpt:
We used a reporter gene assay in HepG2 cells to screen for agonists of the peroxisome proliferator-activated receptors. Peroxisome proliferator-activated receptors (PPARs) and other members of the nuclear hormone receptor family are important drug targets for the treatment of metabolic diseases. PPARs play crucial roles in lipid and glucose metabolism, respectively. Therefore, screening methods that help to rapidly identify activators of these receptors should be of considerable value. INV-75 activated a classic PPARα gene, Acetyl-CoA Oxidase (ACO) in a dose dependent and time dependent fashion (FIG. 6A). The time course experiment was performed in presence of INV-75 up to 15 hours. […] We next tested the specificity of INV-75 for PPARα by performing experiments in HepG2 cells transfected with yeast GAL4-PPARα-LBD plasmid+UAS-Luciferase; GAL4-PPARδ-LBD plasmid+UAS-Luciferase and […]. The PPARα, PPARδ and PPARγ binding assays were performed using multiple concentrations of INV-75 (1 μM, 10 μM, 100 μM and 1000 μM). The level of luciferase activity corresponded to the degree of PPAR activation. The results were compared with classic PPAR agonists such as WY-14643 (PPARα agonist), Bezafibrate (PPARδ agonist) and Rosiglitazone ([…]).

In a further test the test system is Patient. Put plainly: Treatment of a patient with chronic myocardial infarction (Example 19). The format is in vivo, human. To be noted: 1.0 to 100 mg/kg with standard therapy. How it is done:
A person with a prior history of a heart attack (myocardial infarction) 1 year ago presents for evaluation. They are asymptomatic. The patient is administered a composition comprising an effective amount of 3,4-Methylenedioxy 6-nitro phenyl lipoate (INV-7465) (1.0 to 100 mg/kg). Alternate therapies include, 3,4-methylenedioxy phenyl acetate (INV 73); 3,4-methylenedioxy-6-nitrophenol (INV 74); 3,4-methylenedioxy-6-nitrophenyl acetate (INV 75); 3,4-Methylenedioxy 6-nitro phenyl lipoate (INV-7465) or 3,4-Methylenedioxy phenyl lipoate (INV-7065). The composition is administered in conjunction with therapy such as aspirin, a drug to reduce the tendency of platelet aggregation, such as clopidogrel bisulfate, a statin, ezetimibe, an angiotensin converting enzyme inhibitor or angiotensin receptor blocker, and other anti-hypertensive agents such as beta-blockers, using dosages known to one of ordinary skill in the art. Patient notes added benefit in total and LDL cholesterol and a reduction in inflammatory markers such as C reactive protein.

Structures are written as SMILES.

T1 sequence (Q07869 239-466 limits assumed): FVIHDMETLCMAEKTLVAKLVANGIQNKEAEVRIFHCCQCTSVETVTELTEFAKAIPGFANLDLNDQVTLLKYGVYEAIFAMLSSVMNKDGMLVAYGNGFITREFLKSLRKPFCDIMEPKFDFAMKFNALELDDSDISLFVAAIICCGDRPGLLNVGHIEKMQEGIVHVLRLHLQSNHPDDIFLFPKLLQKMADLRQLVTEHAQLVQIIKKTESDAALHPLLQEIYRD

Consider `CC(=O)Oc1cc2c(cc1[N+](=O)[O-])OCO2` [INV-75, 3,4-methylenedioxy-6-nitrophenyl acetate], for which the “basal super oxide production in the aorta (DHE)” value in test [1] is given as “reduction”. Besides, the “wall volume, abdominal aorta, MRI” value in test [2] (12 weeks) came to 0.37 cm^3. The “Mean normalized wall volume (NWV), abdominal aorta, MRI” value in test [2] (baseline, prior to supplementation) was 0.24 cm^3. The “mean plaque volume, abdominal aorta, MRI” value in test [2] (study midpoint, 6 weeks of supplementation) came out at 0.35 cm^3. Moreover, on PPARα, the “agonist properties on PPARα activation” value is “selective but partial agonist”. Further, on PPARα (1 μM to 1000 μM), the “PPARα ligand binding activity” value is “increased”.

For the compound `O=C(CCCCC1CCSS1)Oc1cc2c(cc1[N+](=O)[O-])OCO2` (centres unmarked) [INV-7465, 3,4-Methylenedioxy 6-nitro phenyl lipoate], in the test on Patient, the “inflammatory markers such as C reactive protein” value is listed as “reduction”; the “total and LDL cholesterol” value was “added benefit”.
